Measurements: patent publication US9919023B2, “Anti-androgen peptides and uses thereof in cancer therapy” (Cancer Research Technology Limited, priority 2007, dated 2018)
Peptide text beside a SMILES is read from it.

Legend:
[1] = test system: LNCaP cells; experiment: BrdU incorporation (DNA synthesis), EGF-stimulated LNCaP cells; format: cell-based, human; conditions: 24 hrs
Experimental: FIG. 1C. DNA synthesis inhibition of EGF-stimulated human prostate cancer cells by SH3 binder peptide modeled from AR (SEQ. ID NO.1). LNCaP cells were grown in phenol red-free medium added with charcoal-treated serum as previously described and treated for 24 hrs with 100 ng/ml EGF alone or in the presence of a 10 μM of the anti-estrogen ICI 182,780 or 1 nM of the AR-derived (SH3-binder) peptide (SEQ.ID NO.1) or the shuffled sequence of peptide SEQ.ID NO.1 (SEQ.ID NO.7). At the end of the growth factor treatment BrdU incorporation in the cells untreated (control) or treated with EGF alone (EGF) or in the presence of ICI 182,780 (ICI) or the SH3-binder (SH3) or the shuffled sequence of peptide SEQ.ID NO.1 (Ss) was assayed. Data are reported as percentage of cells incorporating BrdU.
(§1) The peptide SEQ.ID NO.1 is finally assayed for its ability to reduce or inhibit EGF induced DNA synthesis in human prostate cancer LNCaP (1C) and MCF-7 (1D) cells. The LNCaP and MCF-7 cells are cultured as described above, then seeded onto coverslips. Cells are then stimulated with 100 ng/ml of highly purified EGF (Boheringer, Calif.) in the absence or in presence of 1 nM peptide SEQ.ID NO.1.
(§2) DNA synthesis is assayed in single cells by a 6 h pulse with 100 μM (final concentration) BrdU (Boeheringer). Cells on coverslips are fixed, and incubated with diluted (1:1 in PBS) fluorescein-conjugated mouse anti-BrdU mAbs (clone BMC9318 from Boheringer Mannheim Co., IN), then washed three times with PBS. […] All coverslips are washed three times in PBS, inverted and mounted in Moviol (Calbiochem, CA) on glass slides. Slides are analyzed using an Axiophot fluorescent microscope (Zeiss).

[2] = test system: MCF-7 cells; experiment: BrdU incorporation (DNA synthesis), EGF-stimulated MCF-7 cells; format: cell-based, human; conditions: 24 hrs
Experimental: FIG. 1D. […] MCF-7 cells were grown in phenol red-free medium added with charcoal-treated serum as previously described and treated for 24 hrs with 100 ng/ml EGF alone or in the presence of a 10 μM of the anti-estrogen ICI 182,780 or 1 nM of the AR-derived (SH3-binder) peptide or the shuffled sequence of peptide SEQ ID NO.1 (SEQ.ID. NO.7). At the end of the growth factor treatment, BrdU incorporation in the cells untreated (control) or treated with EGF alone (EGF) or in the presence of ICI 182,780 (ICI) or SH3-binder (SH3) or shuffled sequence of peptide SEQ.ID NO.1 (Ss) was assayed. Data are reported as percentage of cells incorporating BrdU.
as §1, §2

[3] = test system: Cyclin D1; experiment: Androgen-induced cyclin D1 expression, western blot in MCF-7 and LNCaP cells; format: cell-based, human
Experimental: Inhibition of androgen-induced cyclin D1 expression by AR-derived Src-SH3 binder peptide (SEQ.ID NO.1). Quiescent MCF-7 and LNCaP cells were left untreated or treated for 8 hrs with 10 nM R1881 alone or in the presence of 5 μM PI3-kinase inhibitor LY294,002 or 1 nM AR-derived SH3 binder or the shuffled sequence of peptide SEQ.ID NO.1 (SEQ.ID. NO.7). Protein from cell lysates were resolved on SDS-PAGE, then transferred to nitrocellulose filters. […] Lanes 1: unstimulated cells; lanes 2: R1881 treated cells; lanes 3: cells treated with R1881 in the presence of LY294,002 (LY); lanes 4: cells treated with R1881 in the presence of AR-derived (SH3-binder) peptide (SH3); lane 5: cells treated with R1881 in the presence of the shuffled sequence of peptide SEQ.ID NO.1 (Ss).
To verify this possibility, SH3 binder peptide (SEQ.ID NO.1) is added to MCF-7 and LNCaP cells stimulated with the androgen. MCF-7 and LNCaP cells are routinely grown as described above. Cells are then kept for at least 4 days in red phenol-free medium supplemented as described above and added with dextran-coated charcoal treated fetal calf serum to minimize steroid concentration.

[4] = test system: LNCaP cells; experiment: BrdU incorporation (DNA synthesis), R1881-stimulated LNCaP cells; format: cell-based, human; conditions: for residual BrdU incorporation: R1881 alone 54%, untreated 20%
[5] = test system: MCF-7 cells; experiment: BrdU incorporation (DNA synthesis), estradiol-stimulated MCF-7 cells; format: cell-based, human; conditions: 24 hrs
Experimental: as §2

[6] = target: T1, AR association with Src (Homo sapiens, UniProt P12931); experiment: Androgen-stimulated AR association with Src, anti-Src co-immunoprecipitation in LNCaP cells; format: cell-based
T1 construct: Cell lysates are submitted to immuno-precipitation using mouse monoclonal anti-Src antibodies; endogenous in cells; host or cells: LNCaP
Experimental: Human prostate cancer LNCaP cells were left unstimulated or stimulated for 2 min with 10 nM R1881 alone or in the presence of 1000-fold excess of Casodex or 1 nM of the SH3-binder peptide or the shuffled sequence of peptide SEQ.ID NO.1 (SEQ.ID NO.7). Cell lysates were incubated with anti-Src antibodies, and the immunoprecipitated proteins resolved on SDS-PAGE and transferred onto nitrocellulose filters. Filters were then blotted with either anti-Src or anti-human AR antibodies to detect AR associated with Src. […] Lane 1: unstimulated cells; lane 2: R1881 treated cells; lane 3: cells treated with R1881 in the presence of Casodex (Cdx); lane 4: cells treated with R1881 in the presence of the SH3 binder peptide (SH3, SEQ.ID NO.1); lane 5: cells treated with R1881 in the presence of the shuffled sequence of peptide SEQ.ID NO.1 (Ss, SEQ.ID NO.7).
Cells are then stimulated with 10 nM R1881 alone or in the presence of a 1000-fold excess of the anti-androgen Casodex or 1 nM of the SEQ.ID NO.1 peptide or 1 nM of the shuffled sequence of peptide SEQ.ID NO.1 (SEQ.ID NO.7) for 2 min, and lysed. Cell lysates are submitted to immuno-precipitation using mouse monoclonal anti-Src antibodies (Clone 327, Oncogene Science, Manhasset, N.Y.). The immuno-precipitated proteins are resolved on a 12% SDS-polyacrylammide gel and thereafter transferred onto nitrocellulose filters. […]

[7] = target: T2, ER association with Src (Homo sapiens, UniProt P12931); experiment: Estrogen-stimulated ER/AR association with Src, anti-Src co-immunoprecipitation in MCF-7 cells; format: cell-based
T2 construct: Cell lysates are submitted to immunoprecipitation using mouse monoclonal anti-Src antibodies; endogenous in cells; host or cells: MCF-7
Experimental: Human breast cancer MCF-7 cells were left unstimulated or stimulated for 2 min with 10 nM 17β estradiol alone or in the presence of a 1000 fold excess of ICI 182,780 or 1 nM of the SH3 binder peptide or the shuffled sequence of peptide SEQ.ID NO.1 (SEQ.ID NO.7). Cell lysates were incubated with anti-Src antibodies, immunoprecipitated proteins were resolved on SDS-PAGE and transferred onto nitrocellulose filters. Filters were then blotted with either anti-Src or anti-human AR antibodies to detect AR associated with Src.
Cells are suspended in 1 ml of lysis buffer: 50 mM Tris-HCl, pH 7.40, containing 5 mM MgCl2, 150 mM NaCl, 0.5% Triton X-100 and left under gentle shaking for 2 min, at 4° C. Suspensions are then centrifuged at about 800 g for 30 min and supernatant collected and used for immunoprecipitation.
To address this point mammary cancer derived MCF-7 cells are grown in 5% CO2 in air in DMEM medium (GIBCO) supplemented with phenol-red, 2 mM L-glutamine (GIBCO), penicillin (100 U/ml), gentamicin (50 μl/ml), hydrocortisone (3.75 ng/ml) insulin (0.2 U.I./ml) and 5% fetal calf serum. The cells are then kept in DMEM without phenol red and supplemented with glutamine, penicillin, gentamicin and insulin as above and containing 5% charcoal-stripped fetal calf serum for additional 4 days. […]

[8] = test system: Cyclin D1; experiment: Estrogen-induced cyclin D1 expression, western blot in MCF-7 and LNCaP cells; format: cell-based, human
Experimental: Quiescent MCF-7 and LNCaP cells were left untreated or treated for 8 hrs with 10 nM 17β estradiol alone or in the presence of 5 μM PI3-Kinase inhibitor LY294,002 or 1 nM of the SH3 binder or the shuffled sequence of peptide SEQ.ID NO.1 (SEQ.ID NO.7). Protein from cell lysates were resolved on SDS-PAGE, then transferred to nitrocellulose filters. […] Lanes 1: unstimulated cells; lanes 2: estradiol treated cells; lanes 3: cells treated with estradiol in the presence of LY294,002 (LY); lane 4: cells treated with estradiol in the presence of SH3-binder peptide (SH3); lane 5: cells treated with estradiol in the presence of the shuffled sequence of peptide SEQ.ID NO.1 (Ss).
To test the effect of SH3 binder peptide (SEQ.ID NO.1) on estrogen stimulated Cyclin D1 expression, this peptide is added to LNCaP and MCF-7 cells stimulated with 10 nM 17β-estradiol (FIG. 3B). MCF-7 and LNCaP cells are routinely grown as reported above. Cells are then kept for at least 4 days in red phenol-free medium supplemented as described above and added with dextran-coated charcoal treated fetal calf serum to minimize steroid contamination.

[9] = test system: androgen receptor; experiment: ARE luciferase reporter gene transcription in LNCaP cells; format: cell-based, human
Experimental: LNCaP cells were transfected with a reporter gene encoding the luciferase gene under the control of an androgen responsive element (ARE 3416) (Castoria et al., 2003). Six hrs after transfection, cells were kept for further 24 hrs in the absence or in presence of 10 nM R1881 alone or with a 1000 fold excess of Casodex or with 1 nM SH3 binder peptide (SEQ.ID NO.1) or 1 nM shuffled sequence of peptide SEQ.ID NO.1 (SEQ.ID. NO.7). Luciferase activity was then assayed in cell lysates. Bar1: unstimulated cells; Bar 2: R1881 treated cells; Bar 3: cells treated with R1881 in the presence of Casodex (Cdx); Bar 4: cells treated with R1881 in the presence of the SH3 binder peptide (SH3); Bar 5: cells treated with R1881 in the presence of the shuffled sequence of peptide SEQ.ID NO.1 (Ss).
LNCaP cells, kept in 5% CO2 in air in RPMI 1640 medium (GIBCO) supplemented with phenol-red, 2 mM L-glutamine (GIBCO), penicillin (100 U/ml), gentamicin (50 μl/ml), insulin and 10% fetal calf serum, are transfected with a reporter gene engineered in a pSG5 expression vector with the luciferase gene under the control of an androgen responsive element (ARE3416) (Verrijdt et al., 2000). […]

[10] = test system: LNCaP cell xenografts; experiment: LNCaP cell xenografts in nude male mice; conditions: peptide intraperitoneally on alternate days, LNCaP xenograft mice; data not shown
[11] = test system: MCF-7 cell xenografts; experiment: MCF-7 cell xenografts in nude male mice; conditions: peptide intraperitoneally on alternate days, MCF-7 xenograft mice; data not shown
[12] = 1 nM peptide with 10 nM R1881, 24 hrs
[13] = 1 nM peptide with 10 nM 17β estradiol

EGF: highly purified EGF, growth factor used as stimulus
BrdU incorporation ([1]; 100 ng/ml EGF alone, untreated cells 8%): 21%
BrdU incorporation ([2]; 100 ng/ml EGF alone, untreated cells 6%): 36%

CC(C)(C)n1nc(-c2ccc(Cl)cc2)c2c(N)ncnc21 [PP2]
hormone stimulated cyclin expression ([3]; with 10 nM R1881, concentration not given, data not shown): abolishes

Ac-His-Pro-Lys-Pro-Ala-Arg-Ile-Pro-His-Pro-NH2 (Ac-HPKPARIPHP-NH2) [SEQ.ID NO.7]
residual BrdU incorporation [4, 12]: 48%
effect on estrogen-induced DNA synthesis [5, 13]: not significant effect
BrdU incorporation (residual) ([1]; 1 nM peptide with 100 ng/ml EGF, EGF alone 21%, untreated 8%): 15%
BrdU incorporation (residual) ([2]; 1 nM peptide with 100 ng/ml EGF, EGF alone 36%, untreated 6%): 48%
hormone stimulated Src-AR association (AR co-immunoprecipitated by anti-Src antibodies) ([6]; 1 nM peptide with 10 nM R1881, 2 min): only slightly affected
hormone stimulated receptor-Src association (co-immunoprecipitation by anti-Src antibodies) [7, 13]: only slightly affected
Cyclin D induction by R1881 ([3]; 1 nM peptide with 10 nM R1881, 6 hrs, MCF-7 and LNCaP): only partially reduces
Cyclin D induction by estrogen ([8]; 1 nM peptide with 10 nM 17β estradiol, 6 hrs): a little effect
transcriptional activity of AR (luciferase reporter) [9, 12]: neither the SH3 peptide nor the shuffled sequence of peptide SEQ. ID NO.1 affect

CC[C@H](C)[C@H](NC(=O)[C@H](CCCNC(=N)N)NC(=O)[C@H](C)NC(=O)[C@H](Cc1c[nH]cn1)NC(=O)[C@@H]1CCCN1C(=O)[C@H](Cc1c[nH]cn1)NC(=O)[C@@H]1CCCN1C(=O)[C@@H]1CCCN1C(=O)[C@@H]1CCCN1C(C)=O)C(=O)N[C@@H](CCCCN)C(N)=O [SEQ.ID NO.1, Ac-Pro-Pro-Pro-His-Pro-His-Ala-Arg-Ile-Lys-NH2] (Ac-PPPHPHARIK-NH2)
weight of mice vs vehicle [10]: No difference
weight of mice vs vehicle [11]: No difference

C[C@]12CC[C@@H]3c4ccc(O)cc4C[C@@H](CCCCCCCCC[S+]([O-])CCCC(F)(F)C(F)(F)F)[C@H]3[C@@H]1CC[C@@H]2O (stereo partly shown) [ICI 182,780]
residual BrdU incorporation ([5]; 1000-fold excess with 10 nM 17β estradiol, E2 alone 61%, untreated 8%): 7%
residual BrdU incorporation ([1]; 10 μM with 100 ng/ml EGF, EGF alone 21%, untreated 8%): 7%
residual BrdU incorporation ([2]; 10 μM with 100 ng/ml EGF, EGF alone 36%, untreated 6%): 9%
association between ER and Src (co-immunoprecipitation by anti-Src antibodies) ([7]; 1000-fold excess with 10 nM 17β estradiol): abolished

CC(O)(CS(=O)(=O)c1ccc(F)cc1)C(=O)Nc1ccc(C#N)c(C(F)(F)F)c1 (stereo not shown) [Casodex, biclutamide]
residual BrdU incorporation ([4]; 1000-fold excess with 10 nM R1881, 24 hrs): 21%
hormone stimulated Src-AR association (AR co-immunoprecipitated by anti-Src antibodies) ([6]; 1000-fold excess with 10 nM R1881, 2 min): abolished
androgen induced transcription of reporter gene ([9]; 1000 fold excess with 10 nM R1881, 24 hrs): completely inhibits

O=c1cc(N2CCOCC2)oc2c(-c3ccccc3)cccc12 [LY 294,002]
hormone stimulated cyclin expression ([3]; 5 μM with 10 nM R1881, MCF-7 and LNCaP): abolishes
hormone stimulated cyclin expression ([8]; 5 μM with 10 nM 17β estradiol): abolishes

C[C@]1(O)CC[C@H]2[C@@H]3CCC4=CC(=O)CCC4=C3C=C[C@@]21C [R1881]
BrdU incorporation rate ([4]; 10 nM R1881 alone, 24 hrs, untreated cells 20%, averaged from six assays): 54%

C[C@]12CC[C@@H]3c4ccc(O)cc4CC[C@H]3[C@@H]1CC[C@@H]2O [17β estradiol]
BrdU incorporation rate ([5]; 10 nM 17β estradiol alone, untreated cells 8%, averaged from six assays): 61%
